{"source": "patent US8420114B2", "about": "“Alpha and beta adrenergic receptor agonists for treatment of pain and / or inflammation” (Warsaw Orthopedic, Inc., priority 2008, dated 2013)", "key": {"[1]": {"tested_on": "rat Chronic Constriction Injury model (Bennett Model) of neuropathic pain", "assay": "Hargreaves test of thermal hyperalgesia (thermal paw withdrawal latency) in rat chronic constriction injury model", "type": "in vivo, Wistar rat", "text": "The inventors evaluated the efficacy of a various alpha-2-adrenergic receptor agonists and compared them against saline in the rat Chronic Constriction Injury model (i.e., Bennett Model) using Wistar rats. […] The doses given would mimic those achievable by a continuous release drug depot containing a biodegradable polymer (7 rats in each group).\nEach group received the treatment indicated above for total of 15 days and subjected to the following two tests: (1) the Hargreaves test on days 7 and 14; and (2) the von Frey test on days 8 and 15.\n(§1) Results from another rat chronic constriction injury model study silimar to that discussed in Example 5, except some drug compositions having predominantly alpha 1 agonist activity and some drug compositions having predominantly alpha 2 agonist activity were given as indicated in the table below. The doses given would mimic those achievable by a continuous release drug depot containing a biodegradable polymer (7 rats in each group). […]\n(§2) The inventors evaluated the efficacy of a various beta-2-adrenergic receptor agonists and compared them to clonidine (an alpha-2-agonist) and saline in the rat Chronic Constriction Injury model (i.e., Bennett Model) using Wistar rats.\nHargreaves tests were conducted on days 7 and 14; and von Frey tests were performed on days 8 and 15, where some drug compositions having predominantly beta-2 agonist activity were compared to clonidine a drug composition that has predominantly alpha-2 agonist activity and saline. The doses given would mimic those achievable by a continuous release drug depot containing a biodegradable polymer (7 rats in each group).\nEach group received the treatment indicated above for total of 15 days and the following two tests: (1) the Hargreaves test on days 7 and 14; and (2) the von Frey test on days 8 and 15."}, "[2]": {"tested_on": "rat Chronic Constriction Injury model (Bennett Model) of neuropathic pain", "assay": "von Frey monofilament test of mechanical allodynia (mechanical threshold) in rat chronic constriction injury model", "type": "in vivo, Wistar rat", "text": "The inventors evaluated the efficacy of a various alpha-2-adrenergic receptor agonists and compared them against saline in the rat Chronic Constriction Injury model (i.e., Bennett Model) using Wistar rats. […] The doses given would mimic those achievable by a continuous release drug depot containing a biodegradable polymer (7 rats in each group). […]\nas §1, §2\nHargreaves tests were conducted on days 7 and 14; […], where some drug compositions having predominantly beta-2 agonist activity were compared to clonidine a drug composition that has predominantly alpha-2 agonist activity and saline. The doses given would mimic those achievable by a continuous release drug depot containing a biodegradable polymer (7 rats in each group). […]"}, "[3]": {"conditions": "Example 5, FIG. 36, 100 micrograms/kg subcutaneous every day for 15 days, days 7 and 14"}, "[4]": {"conditions": "Example 7, FIG. 40, 5 mg/kg subcutaneous every day for 15 days, day 14, vs saline"}}}
{"smiles": "Cc1cc(C(C)(C)C)c(O)c(C)c1CC1=NCCN1", "note": "[oxymetazoline]", "values": [{"measurement": "pain behavioral response for thermal hyperalgesia", "setting": "[1]; Example 6, FIG. 37, 0.1 mg/kg subcutaneous every day for 15 days, day 7", "result": "statistically significant result of decreasing pain responses"}, {"measurement": "pain behavioral response for thermal hyperalgesia", "setting": "[1]; Example 6, FIG. 37, 0.3 mg/kg subcutaneous every day for 15 days, days 7 and 14", "result": "statistically significant result of decreasing pain responses"}, {"measurement": "pain behavioral response for mechanical allodynia", "setting": "[2]; Example 6, FIG. 38, 0.1 mg/kg subcutaneous every day for 15 days, day 8 and 15, compared to saline", "result": "decreasing pain responses"}, {"measurement": "pain behavioral response for mechanical allodynia", "setting": "[2]; Example 6, FIG. 38, 0.3 mg/kg subcutaneous every day for 15 days, day 8 and 15, compared to saline", "result": "decreasing pain responses"}]}
{"smiles": "N=C(N)NC(=O)Cc1c(Cl)cccc1Cl", "note": "[guanfacine]", "values": [{"measurement": "pain behavioral response for thermal hyperalgesia", "setting": "[1]; Example 5, FIG. 36, 5 mg/kg subcutaneous every day for 15 days, days 7 and 14", "result": "statistically significant result of decreasing pain responses"}, {"measurement": "pain behavioral response for mechanical allodynia", "setting": "[2]; Example 5, FIG. 35, 5 mg/kg subcutaneous every day for 15 days, day 15, vs saline", "result": "statistically significant results of decreasing pain responses"}]}
{"smiles": "Clc1ccc2nsnc2c1NC1=NCCN1", "note": "[tizanidine]", "values": [{"measurement": "pain behavioral response for thermal hyperalgesia", "setting": "[1]; [3]", "result": "statistically significant result of decreasing pain responses"}, {"measurement": "pain behavioral response for mechanical allodynia", "setting": "[2]; Example 5, FIG. 35, 100 micrograms/kg subcutaneous every day for 15 days, day 15, vs saline", "result": "statistically significant results of decreasing pain responses"}]}
{"smiles": "N=C(N)N/N=C/c1c(Cl)cccc1Cl", "note": "[guanabenz]", "values": [{"measurement": "pain behavioral response for thermal hyperalgesia", "setting": "[1]; Example 6, FIG. 37, 1 mg/kg subcutaneous every day for 15 days, day 7", "result": "statistically significant result of decreasing pain responses"}, {"measurement": "pain behavioral response for mechanical allodynia", "setting": "[2]; Example 6, FIG. 38, 1 mg/kg subcutaneous daily, day 8, compared to saline", "result": "decreased mechanical allodynia"}, {"measurement": "pain behavioral response for mechanical allodynia", "setting": "[2]; Example 6, FIG. 38, 5 mg/kg subcutaneous daily, day 15, compared to saline", "result": "decreased mechanical allodynia"}]}
{"smiles": "CC(NCCc1ccc(O)cc1)C(O)c1ccc(O)cc1", "note": "(centres unmarked) [ritodrine]", "values": [{"measurement": "pain behavioral response for thermal hyperalgesia", "setting": "[1]; Example 7, FIG. 39, 2 mg/kg subcutaneous every day for 15 days, day 7, vs saline", "result": "statistically significant result of decreasing pain responses"}, {"measurement": "pain behavioral response for thermal hyperalgesia", "setting": "[1]; Example 7, FIG. 39, 5 mg/kg subcutaneous every day for 15 days, day 14, vs saline", "result": "statistically significant result of decreasing pain responses"}, {"measurement": "pain behavioral response for mechanical allodynia", "setting": "[2]; [4]", "result": "statistically significant result of decreasing pain responses"}]}
{"smiles": "Clc1cccc(Cl)c1N=C1NCCN1", "note": "[clonidine, 2,6-dichloro-N-2-imidazolidinyldenebenzenamine]", "values": [{"measurement": "pain behavioral response for thermal hyperalgesia", "setting": "[1]; Example 5, FIG. 36, 0.02 mg/kg subcutaneous every day for 15 days, days 7 and 14", "result": "statistically significant result of decreasing pain responses"}, {"measurement": "pain behavioral response for thermal hyperalgesia", "setting": "[1]; Example 6, FIG. 37, 0.02 mg/kg subcutaneous every day for 15 days, days 7 and 14", "result": "statistically significant result of decreasing pain responses"}, {"measurement": "pain behavioral response for thermal hyperalgesia", "setting": "[1]; Example 7, FIG. 39, 0.02 mg/kg subcutaneous every day for 15 days, day 14, vs saline", "result": "statistically significant result of decreasing pain responses"}, {"measurement": "pain behavioral response for mechanical allodynia", "setting": "[2]; Example 5, FIG. 35, 0.02 mg/kg subcutaneous every day for 15 days, day 15, vs saline", "result": "statistically significant results of decreasing pain responses"}, {"measurement": "pain behavioral response (measured as a percentage of baseline) for mechanical allodynia", "setting": "[2]; clonidine subcutaneously 0.02 mg/kg/day, compared to unloaded polymer depots, FIG. 4", "result": "reduced the behavioral response"}]}
{"smiles": "Cc1cccc(C(C)c2cnc[nH]2)c1C", "note": "(centres unmarked) [medetomidine]", "values": [{"measurement": "pain behavioral response for thermal hyperalgesia", "setting": "[1]; [3]", "result": "statistically significant result of decreasing pain responses"}, {"measurement": "pain behavioral response for thermal hyperalgesia", "setting": "[1]; Example 5, FIG. 36, 200 micrograms/kg subcutaneous every day for 15 days, day 14", "result": "statistically significant result of decreasing pain responses"}, {"measurement": "pain behavioral response for mechanical allodynia", "setting": "[2]; Example 5, FIG. 35, 200 micrograms/kg subcutaneous every day for 15 days, day 15, vs saline", "result": "statistically significant results of decreasing pain responses"}]}
{"smiles": "CNC[C@H](O)c1cccc(O)c1", "note": "[phenylephrine]", "values": [{"measurement": "pain behavioral response for thermal hyperalgesia", "setting": "[1]; Example 6, FIG. 37, 2 mg/kg subcutaneous every day for 15 days, day 7", "result": "statistically significant result of decreasing pain responses"}, {"measurement": "pain behavioral response for thermal hyperalgesia", "setting": "[1]; Example 6, FIG. 37, 10 mg/kg subcutaneous every day for 15 days, days 7 and 14", "result": "statistically significant result of decreasing pain responses"}, {"measurement": "pain behavioral response for mechanical allodynia", "setting": "[2]; Example 6, FIG. 38, 10 mg/kg subcutaneous daily, day 8, compared to saline", "result": "decreased mechanical allodynia"}]}
{"smiles": "CC(C)(C)NCC(O)c1cc(O)cc(O)c1", "note": "(centres unmarked) [terbutaline]", "values": [{"measurement": "pain behavioral response for thermal hyperalgesia", "setting": "[1]; Example 7, FIG. 39, 0.1 mg/kg subcutaneous every day for 15 days, days 7 and 14, vs saline", "result": "statistically significant result of decreasing pain responses"}, {"measurement": "pain behavioral response for thermal hyperalgesia", "setting": "[1]; Example 7, FIG. 39, 0.5 mg/kg subcutaneous every day for 15 days, days 7 and 14, vs saline", "result": "statistically significant result of decreasing pain responses"}, {"measurement": "pain behavioral response for mechanical allodynia", "setting": "[2]; Example 7, FIG. 40, 0.5 mg/kg subcutaneous every day for 15 days, day 14, vs saline", "result": "statistically significant result of decreasing pain responses"}]}
{"smiles": "CC(C)(C)NCC(O)c1ccc(O)c(CO)c1", "note": "(centres unmarked) [salbutamol]", "values": [{"measurement": "pain behavioral response for thermal hyperalgesia", "setting": "[1]; Example 7, FIG. 39, 5 mg/kg subcutaneous every day for 15 days, days 7 and 14, vs saline", "result": "statistically significant result of decreasing pain responses"}, {"measurement": "pain behavioral response for thermal hyperalgesia", "setting": "[1]; Example 7, FIG. 39, 10 mg/kg subcutaneous every day for 15 days, days 7 and 14, vs saline", "result": "statistically significant result of decreasing pain responses"}, {"measurement": "pain behavioral response for mechanical allodynia", "setting": "[2]; [4]", "result": "statistically significant result of decreasing pain responses"}, {"measurement": "pain behavioral response for mechanical allodynia", "setting": "[2]; Example 7, FIG. 40, 10 mg/kg subcutaneous every day for 15 days, days 8 and 15, vs saline", "result": "statistically significant result of decreasing pain responses"}]}
